Paper PMC10590383, “Repurposing conformational changes in ANL superfamily enzymes to rapidly generate biosensors for organic and amino acids” (Nature Communications, 2023)

Columns and labels:
Type in all cases: biochemical
[1] = Dose–response curve of purified GECFINDERs with leucine
Description: (§1) Fig. 4 Engineering ligand specificity of GrsA-PheA for generating […]s. a The selectivity-conferring code of Phe and Leu A domains. b–f Dose–response curve of purified […]s with increasing concentrations of ligands in 100 mM Tris-HCl buffer (pH=7.5). All data shown are means ± S.D. (n = 3 biologically independent samples). g A series of […] reactions was tested to show the […]’s specificity with 20 proteinogenic amino acids. The values on the heatmap represent the ΔF/F0 value normalized to each […]’s maximal ΔF/F0 value ((ΔF/F0)/maximal ΔF/F0). The concentrations of 20 amino acids were 100 μM. The color indicates the average value of three independent biological replicates after 15 min. All data shown are means ± S.D. (n = 3 biologically independent samples). Source data are provided as a Source data file.
(§2) The study conducted dose–response curve, substrate specificity, and fluorescent spectrum analyses in 100-mM Tris buffer (pH = 7.5), while pH stability experiments were performed in 100-mM Tris buffer at three different pH values (6.5, 7.5, and 8.5) at room temperature. […] protein at a concentration of 0.75 μM, various small molecule concentrations, 1 mM ATP, and 2.5 mM MgCl2 were used in the experiments. Fluorescent signals were detected using a Microplate Reader (Synergy H4, Bio Tek) at an excitation/emission wavelength of 460 nm/510 nm or 480 nm/510 nm. The dose-response curve was determined immediately after the addition of the analyte. The total duration of the measurement was 15 min, with readings taken at one-minute intervals. The dose-response curve was plotted using the fluorescence values obtained after achieving stability in the fluorescence signal. The dose-response curves were fitted using the logistic model LOGISTIC5 available in Origin 2021, which could provide a more adequate fit to asymmetric dose-response data[62],[63]. Excitation spectra were scanned from 300 to 540 nm with a step size of 5 nm, and the emission wavelength was set to 560 nm. Emission spectra were scanned from 470 to 700 nm with a step size of 5 nm, and the excitation wavelength was set to 450 nm. The thermal stability of […] was analyzed using the UNcle multifunctional protein stability analysis system. Measurements were performed in 20 mM MOPS buffer with 2 mM DTT at a sample concentration of 1 mg/mL. Absolute fluorescence quantum yields were measured using an absolute photoluminescence quantum yield spectrometer (FS5, Edinburgh).

[2] = Substrate (ligand) specificity of […]s; settings: for AVE of Repeat 1-3, sensor signal with ligand (Supplementary Fig. 7 c): 1 mM ligand, Control AVE 12117.3; for fluorescence response of GECFINDER to each substrate, AVE of 3 repeats: Supplementary Fig. 3 c, substrate specificity
Description: as §1
Ligand specificity is an important biosensors feature. Generally, the NRPS A domains have high specificity for their substrates because they are the first “gatekeeper” of NRPSs and ensure that the correct monomers are activated and thioesterified[32],[33]. Therefore, we speculated that this property would be inherited by our […]s because the ligand-binding pockets were unchanged during the […] creation process. Twenty proteinogenic amino acids were used to test the ligand specificity of […]s. […] We also investigated the dependence of […]s on Mg^2+ and ATP (Supplementary Fig. 4). […] This phenomenon corroborates with the distinct conformational changes observed in Hinge A of Nt4CL2 (Mg^2++ATP) (PDB ID: 5BSM) and Nt4CL2 (Coumaroyl-AMP) (PDB ID: 5BST) reported in the literature (Supplementary Fig. 4k), where the direction of motion in hinge A differs. […] During the determination of quantum yield, we observed that the absolute quantum yield of the […] variants ranged from 0.3 to 0.6 upon addition of the respective substrates, which show no significant difference with that reported in literature. The specific values are provided in Supplementary Table 2.
as §2

[3] = Dose–response curve of purified […]s with tyrosine
Description: as §1, §2

CC(C)C[C@H](N)C(=O)O [Leu]
AVE, dose-response Fig. 4 b ([1]; substrate Leu 0.001 μM): -7.112e-17
AVE, dose-response Fig. 4 b ([1]; substrate Leu 0.005 μM): 0.003877
AVE, dose-response Fig. 4 b ([1]; substrate Leu 0.01 μM): 0.02311
AVE, dose-response Fig. 4 b ([1]; substrate Leu 0.05 μM): 0.04234
AVE, dose-response Fig. 4 b ([1]; substrate Leu 0.1 μM): 0.03637
AVE, dose-response Fig. 4 b ([1]; substrate Leu 0.5 μM): 0.02815
AVE, dose-response Fig. 4 b ([1]; substrate Leu 1 μM): 0.02962
AVE, dose-response Fig. 4 b ([1]; substrate Leu 5 μM): 0.0138
AVE, dose-response Fig. 4 b ([1]; substrate Leu 10 μM): 0.1049
AVE, dose-response Fig. 4 b ([1]; substrate Leu 25 μM): 0.1731
AVE, dose-response Fig. 4 b ([1]; substrate Leu 50 μM): 0.2052
AVE, dose-response Fig. 4 b ([1]; substrate Leu 100 μM): 0.2136
AVE, dose-response Fig. 4 c ([1]; substrate Leu 0.5 μM): 6.794e-17
AVE, dose-response Fig. 4 c ([1]; substrate Leu 1 μM): 0.0405
AVE, dose-response Fig. 4 c ([1]; substrate Leu 2 μM): 0.06186
AVE, dose-response Fig. 4 c ([1]; substrate Leu 5 μM): 0.1266
AVE, dose-response Fig. 4 c ([1]; substrate Leu 10 μM): 0.1121
AVE, dose-response Fig. 4 c ([1]; substrate Leu 20 μM): 0.1733
AVE, dose-response Fig. 4 c ([1]; substrate Leu 50 μM): 0.2857
AVE, dose-response Fig. 4 c ([1]; substrate Leu 100 μM): 0.4006
AVE, dose-response Fig. 4 c ([1]; substrate Leu 200 μM): 0.5877
AVE, dose-response Fig. 4 c ([1]; substrate Leu 500 μM): 0.7587
AVE, dose-response Fig. 4 c ([1]; substrate Leu 750 μM): 0.8241
AVE, dose-response Fig. 4 c ([1]; substrate Leu 1000 μM): 0.7953
AVE, dose-response Fig. 4 d ([1]; substrate Leu 0.005 μM): -5.262e-17
AVE, dose-response Fig. 4 d ([1]; substrate Leu 0.01 μM): 0.03426
AVE, dose-response Fig. 4 d ([1]; substrate Leu 0.1 μM): 0.06576
AVE, dose-response Fig. 4 d ([1]; substrate Leu 1 μM): 0.08826
AVE, dose-response Fig. 4 d ([1]; substrate Leu 5 μM): 0.1792
AVE, dose-response Fig. 4 d ([1]; substrate Leu 10 μM): 0.2348
AVE, dose-response Fig. 4 d ([1]; substrate Leu 50 μM): 0.4576
AVE, dose-response Fig. 4 d ([1]; substrate Leu 100 μM): 0.5636
AVE, dose-response Fig. 4 d ([1]; substrate Leu 200 μM): 0.7427
AVE, dose-response Fig. 4 d ([1]; substrate Leu 500 μM): 0.9952
AVE, dose-response Fig. 4 d ([1]; substrate Leu 750 μM): 1.079
AVE, dose-response Fig. 4 d ([1]; substrate Leu 1000 μM): 1.107
fluorescence response of GECFINDER, AVE of 3 repeats ([1]; Supplementary Fig. 3 a, Leu 0.001 μM): 0
fluorescence response of GECFINDER, AVE of 3 repeats ([1]; Supplementary Fig. 3 a, Leu 0.005 μM): 0.02218
fluorescence response of GECFINDER, AVE of 3 repeats ([1]; Supplementary Fig. 3 a, Leu 0.01 μM): 0.03478
fluorescence response of GECFINDER, AVE of 3 repeats ([1]; Supplementary Fig. 3 a, Leu 0.1 μM): 0.05423
fluorescence response of GECFINDER, AVE of 3 repeats ([1]; Supplementary Fig. 3 a, Leu 1 μM): 0.08086
fluorescence response of GECFINDER, AVE of 3 repeats ([1]; Supplementary Fig. 3 a, Leu 10 μM): 0.1724
fluorescence response of GECFINDER, AVE of 3 repeats ([1]; Supplementary Fig. 3 a, Leu 50 μM): 0.3353
fluorescence response of GECFINDER, AVE of 3 repeats ([1]; Supplementary Fig. 3 a, Leu 100 μM): 0.4583
fluorescence response of GECFINDER, AVE of 3 repeats ([1]; Supplementary Fig. 3 a, Leu 500 μM): 0.754
fluorescence response of GECFINDER, AVE of 3 repeats ([1]; Supplementary Fig. 3 a, Leu 1000 μM): 0.8727
fluorescence response of GECFINDER, AVE of 3 repeats ([1]; Supplementary Fig. 3 a, Leu 5000 μM): 1.081
fluorescence response of GECFINDER, AVE of 3 repeats ([1]; Supplementary Fig. 3 a, Leu 10000 μM): 0.9665
fluorescence response of GECFINDER, AVE of 3 repeats ([1]; Supplementary Fig. 3 b, Leu 0.001 μM): 4.279e-17
fluorescence response of GECFINDER, AVE of 3 repeats ([1]; Supplementary Fig. 3 b, Leu 0.005 μM): 0.01278
fluorescence response of GECFINDER, AVE of 3 repeats ([1]; Supplementary Fig. 3 b, Leu 0.01 μM): 0.01795
fluorescence response of GECFINDER, AVE of 3 repeats ([1]; Supplementary Fig. 3 b, Leu 0.1 μM): 0.04976
fluorescence response of GECFINDER, AVE of 3 repeats ([1]; Supplementary Fig. 3 b, Leu 1 μM): 0.111
fluorescence response of GECFINDER, AVE of 3 repeats ([1]; Supplementary Fig. 3 b, Leu 10 μM): 0.3678
fluorescence response of GECFINDER, AVE of 3 repeats ([1]; Supplementary Fig. 3 b, Leu 50 μM): 0.7094
fluorescence response of GECFINDER, AVE of 3 repeats ([1]; Supplementary Fig. 3 b, Leu 100 μM): 0.9192
fluorescence response of GECFINDER, AVE of 3 repeats ([1]; Supplementary Fig. 3 b, Leu 500 μM): 1.615
fluorescence response of GECFINDER, AVE of 3 repeats ([1]; Supplementary Fig. 3 b, Leu 1000 μM): 1.882
fluorescence response of GECFINDER, AVE of 3 repeats ([1]; Supplementary Fig. 3 b, Leu 5000 μM): 2.296
fluorescence response of GECFINDER, AVE of 3 repeats ([1]; Supplementary Fig. 3 b, Leu 10000 μM): 2.333
AVE of Repeat 1-3, sensor signal with ligand (Supplementary Fig. 7 c) [2]: 12093
fluorescence response of GECFINDER to each substrate, AVE of 3 repeats [2]: -0.01092

N[C@@H](Cc1ccc(O)cc1)C(=O)O [Tyr]
AVE of Repeat 1-3, sensor signal with ligand (Supplementary Fig. 7 c) [2]: 11224.3
fluorescence response of GECFINDER to each substrate, AVE of 3 repeats [2]: -0.01776
AVE, dose-response Fig. 4 b ([3]; substrate Tyr 0.5 μM): 7.517e-17
AVE, dose-response Fig. 4 b ([3]; substrate Tyr 1 μM): 0.02259
AVE, dose-response Fig. 4 b ([3]; substrate Tyr 5 μM): 0.05606
AVE, dose-response Fig. 4 b ([3]; substrate Tyr 10 μM): 0.0659
AVE, dose-response Fig. 4 b ([3]; substrate Tyr 20 μM): 0.09543
AVE, dose-response Fig. 4 b ([3]; substrate Tyr 50 μM): 0.2237
AVE, dose-response Fig. 4 b ([3]; substrate Tyr 100 μM): 0.3812
AVE, dose-response Fig. 4 b ([3]; substrate Tyr 200 μM): 0.5926
AVE, dose-response Fig. 4 b ([3]; substrate Tyr 250 μM): 0.6977
AVE, dose-response Fig. 4 b ([3]; substrate Tyr 500 μM): 1.046
AVE, dose-response Fig. 4 b ([3]; substrate Tyr 750 μM): 1.209
AVE, dose-response Fig. 4 b ([3]; substrate Tyr 1000 μM): 1.242
AVE, dose-response Fig. 4 e ([3]; substrate Tyr 0.1 μM): 0
AVE, dose-response Fig. 4 e ([3]; substrate Tyr 0.2 μM): 0.01578
AVE, dose-response Fig. 4 e ([3]; substrate Tyr 1 μM): 0.04154
AVE, dose-response Fig. 4 e ([3]; substrate Tyr 2 μM): 0.05025
AVE, dose-response Fig. 4 e ([3]; substrate Tyr 10 μM): 0.1198
AVE, dose-response Fig. 4 e ([3]; substrate Tyr 20 μM): 0.1707
AVE, dose-response Fig. 4 e ([3]; substrate Tyr 100 μM): 0.4124
AVE, dose-response Fig. 4 e ([3]; substrate Tyr 200 μM): 0.5306
AVE, dose-response Fig. 4 e ([3]; substrate Tyr 500 μM): 0.6788
AVE, dose-response Fig. 4 e ([3]; substrate Tyr 1000 μM): 0.7749
AVE, dose-response Fig. 4 e ([3]; substrate Tyr 1500 μM): 0.7754
AVE, dose-response Fig. 4 e ([3]; substrate Tyr 2000 μM): 0.7447
